# Assay results reported in PubChem BioAssay AID1963974 (Molecular Pharmacology Branch, DTP, NCI, 2024).
# Where “and” joins values, the source holds several entries; their conditions need not be identical. Equal values may be shown once.
# Test system: 648629-189-R-J1-PDC spheroids with HUVEC/MSC, viability
# Assay: Anticancer human tumor 648629-189-R-J1-PDC patient-derived bladder carcinoma cell line growth inhibition [PI3K]
# Settings: for viability, T/C: stronger effect = lower value
# Method in brief: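 We assembled tumor spheroids that included a stromal compartment of HUVEC and MSCs, then exposed them to targeted agents alone and together with PI3K pathway inhibitors. Concentration series descended by half-log from clinically achievable Cmax levels. Viability served as the endpoint.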
# [1] = curve of first compound, second compound 0.0316 µM
# [2] = curve of first compound, second compound 0.1 µM
# [3] = curve of first compound, second compound 0.316 µM
# [4] = curve of first compound, second compound 1 µM
# [5] = second compound 0.0316 µM, first compound 0.0316 µM
# [6] = second compound 0.0316 µM, first compound 0.1 µM
# [7] = second compound 0.0316 µM, first compound 0.316 µM
# [8] = second compound 0.0316 µM, first compound 1 µM
# [9] = second compound 0.0316 µM, first compound 3.16 µM
# [10] = second compound 0.0316 µM, first compound 10 µM
# [11] = second compound 0.1 µM, first compound 0.0316 µM
# [12] = second compound 0.1 µM, first compound 0.1 µM
# [13] = second compound 0.1 µM, first compound 0.316 µM
# [14] = second compound 0.1 µM, first compound 1 µM
# [15] = second compound 0.1 µM, first compound 3.16 µM
# [16] = second compound 0.1 µM, first compound 10 µM
# [17] = second compound 0.316 µM, first compound 0.0316 µM
# [18] = second compound 0.316 µM, first compound 0.1 µM
# [19] = second compound 0.316 µM, first compound 0.316 µM
# [20] = second compound 0.316 µM, first compound 1 µM
# [21] = second compound 0.316 µM, first compound 3.16 µM
# [22] = second compound 0.316 µM, first compound 10 µM
# [23] = second compound 1 µM, first compound 0.0316 µM
# [24] = second compound 1 µM, first compound 0.1 µM
# [25] = second compound 1 µM, first compound 0.316 µM
# [26] = second compound 1 µM, first compound 1 µM
# [27] = second compound 1 µM, first compound 3.16 µM
# [28] = second compound 1 µM, first compound 10 µM
# 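Note: spheroids exposed to agents for seven days before reading.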
# 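Throughout, for viability, T/C: percent of vehicle control luminescence where 100% = DMSO treated spheroids.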
compound,measurement,setting,value
CC1(C)CCC(CN2CCN(c3ccc(C(=O)NS(=O)(=O)c4ccc(NCC5CCOCC5)c([N+](=O)[O-])c4)c(Oc4cnc5[nH]ccc5c4)c3)CC2)=C(c2ccc(Cl)cc2)C1 + CC(Nc1ncnc2nc[nH]c12)c1cc2cccc(Cl)c2c(=O)n1-c1ccccc1,IC50,[1],> 10 µM
same,IC50,[2],> 10 µM
same,IC50,[3],> 10 µM
same,IC50,[4],> 10 µM
same,IC50,"curve of first compound, second compound 3.16 µM",> 10 µM
same,IC50,"curve of first compound, second compound 10 µM",> 10 µM
same,"viability, T/C",[5],112%
same,"viability, T/C",[6],95.7%
same,"viability, T/C",[7],97.3%
same,"viability, T/C",[8],93.1%
same,"viability, T/C",[9],83.4%
same,"viability, T/C",[10],70.3%
same,"viability, T/C",[11],102%
same,"viability, T/C",[12],85%
same,"viability, T/C",[13],104%
same,"viability, T/C",[14],92.3%
same,"viability, T/C",[15],89.4%
same,"viability, T/C",[16],64%
same,"viability, T/C",[17],92.2%
same,"viability, T/C",[18],109%
same,"viability, T/C",[19],95.8%
same,"viability, T/C",[20],94.5%
same,"viability, T/C",[21],97.9%
same,"viability, T/C",[22],65.9%
same,"viability, T/C",[23],95.6%
same,"viability, T/C",[24],108%
same,"viability, T/C",[25],102%
same,"viability, T/C",[26],85.4%
same,"viability, T/C",[27],90.2%
same,"viability, T/C",[28],68.4%
same,"viability, T/C","second compound 3.16 µM, first compound 0.0316 µM",103%
same,"viability, T/C","second compound 3.16 µM, first compound 0.1 µM",101%
same,"viability, T/C","second compound 3.16 µM, first compound 0.316 µM",91.2%
same,"viability, T/C","second compound 3.16 µM, first compound 1 µM",99.5%
same,"viability, T/C","second compound 3.16 µM, first compound 3.16 µM",88.6%
same,"viability, T/C","second compound 3.16 µM, first compound 10 µM",60.1%
same,"viability, T/C","second compound 10 µM, first compound 0.0316 µM",83.7%
same,"viability, T/C","second compound 10 µM, first compound 0.1 µM",97%
same,"viability, T/C","second compound 10 µM, first compound 0.316 µM",87.8%
same,"viability, T/C","second compound 10 µM, first compound 1 µM",84.8%
same,"viability, T/C","second compound 10 µM, first compound 3.16 µM",68.9%
same,"viability, T/C","second compound 10 µM, first compound 10 µM",59.2%
CCCS(=O)(=O)Nc1ccc(F)c(C(=O)c2c[nH]c3ncc(-c4ccc(Cl)cc4)cc23)c1F + COc1c(OCCCN2CCOCC2)ccc2c3n(c(=NC(=O)c4cnc(N)nc4)nc12)CCN3,IC50,"curve of first compound, second compound 0.00316 µM",5.39 µM
same,IC50,"curve of first compound, second compound 0.01 µM",4.98 µM
same,IC50,[1],4.21 µM
same,IC50,[2],1.76 µM
same,IC50,[3],< 0.0316 µM
same,IC50,[4],< 0.0316 µM
same,"viability, T/C","second compound 0.00316 µM, first compound 0.0316 µM",117%
same,"viability, T/C","second compound 0.00316 µM, first compound 0.1 µM",96.9%
same,"viability, T/C","second compound 0.00316 µM, first compound 0.316 µM",92.4%
same,"viability, T/C","second compound 0.00316 µM, first compound 1 µM",100%
same,"viability, T/C","second compound 0.00316 µM, first compound 3.16 µM",92.7%
same,"viability, T/C","second compound 0.00316 µM, first compound 10 µM",0.51%
same,"viability, T/C","second compound 0.01 µM, first compound 0.0316 µM",89.8%
same,"viability, T/C","second compound 0.01 µM, first compound 0.1 µM",87.2%
same,"viability, T/C","second compound 0.01 µM, first compound 0.316 µM",100%
same,"viability, T/C","second compound 0.01 µM, first compound 1 µM",96.4%
same,"viability, T/C","second compound 0.01 µM, first compound 3.16 µM",82.5%
same,"viability, T/C","second compound 0.01 µM, first compound 10 µM",0.3%
same,"viability, T/C",[5],85.8%
same,"viability, T/C",[6],85.3%
same,"viability, T/C",[7],87.8%
same,"viability, T/C",[8],82.5%
same,"viability, T/C",[9],66.4%
same,"viability, T/C",[10],0.81%
same,"viability, T/C",[11],55.4%
same,"viability, T/C",[12],62.3%
same,"viability, T/C",[13],54%
same,"viability, T/C",[14],60.4%
same,"viability, T/C",[15],42.1%
same,"viability, T/C",[16],1.55%
same,"viability, T/C",[17],22.4%
same,"viability, T/C",[18],19.5%
same,"viability, T/C",[19],18.3%
same,"viability, T/C",[20],21.9%
same,"viability, T/C",[21],16%
same,"viability, T/C",[22],2.22%
same,"viability, T/C",[23],4.16%
same,"viability, T/C",[24],3.42%
same,"viability, T/C",[25],3.84%
same,"viability, T/C",[26],3.92%
same,"viability, T/C",[27],3.43%
same,"viability, T/C",[28],0.43%
CC1(C)CCC(Nc2ncc(C(F)(F)F)c(-c3c[nH]c4c(P(C)(C)=O)c(C#N)ccc34)n2)CN1 (stereo unspecified),"viability, T/C",compound 0.0316 µM,30.3% [middle of 4 runs]
same,"viability, T/C",compound 0.1 µM,27.1% [middle of 4 runs]
same,"viability, T/C",compound 0.316 µM,32.2% [middle of 4 runs]
same,"viability, T/C",compound 1 µM,36.1% [middle of 4 runs]
same,"viability, T/C",compound 3.16 µM,39.7% (2×) and 40.8% and 38.2%
same,"viability, T/C",compound 10 µM,5.52% [middle of 4 runs]
same,IC50,curve of compound,< 0.0316 µM
